In patent US20230263956A1, “INGESTIBLE DRUG DELIVERY DEVICE” (Massachusetts Institute of Technology, priority 2020, published 2023):

Assay: In vivo testing: tethered device jetting insulin into the stomach wall
Set-up: species or system Yorkshire pigs
Conditions: jet of insulin into stomach wall, 0.5 Units per kilogram, three of the five device tests, samples until two hours after deployment
Description: Studies were performed by trained veterinary technicians at MIT's animal testing facilities. Yorkshire pigs weighing between 70 and 90 kg were used. All studies were terminal studies (meaning the animal was euthanized immediately afterward). […] The testing protocol is described further below.
This formulation procedure was carried out the morning or evening before each in vivo study, and the resulting solution it was stored at 4° C. until the time of administration.
The device was loaded with API and CO2 in the operating room where the animal was sedated and intubated. The device was deployed either by direct placement into the stomach through a laparotomy, or via an over-tube with an endoscope and snare. Of the five deployments performed with this device, the first three were performed by laparotomy, and the latter two by endoscope. Triggering generally occurred within 15 minutes and could be identified through recoil and minor foaming near the base of the device.
Blood samples were collected by ear catheter or femoral catheter. […] The blood-glucose level was monitored at each draw using commercial glucose monitoring strips. […] The samples were then subsequently analyzed with a custom Ezyme-linked immunosorbent assay (ELISA) for […].

For insulin, the blood glucose levels was “drop in blood glucose levels”.
